In patent US8008311B2, “Methods and compostions utilizing quinazolinones” (Cytokinetics, Inc., priority 2003, dated 2011):
Where “and” joins values, the source holds several entries; their conditions need not be identical. Equal values may be shown once. Read-outs that look alike come from different tables or passages of the source.

Assays:
[1] = tested on: SKOV3 tumor xenograft; assay: SKOV3 tumor xenograft in nude mice; format: in vivo; details: for Mice with Partial Tumor Shrinkage / Mortalities: 8 mice at start
Description: Female nude mice weighing approximately 20 g were implanted s.c. by trocar with fragments of human tumor carcinomas harvested from s.c. growing tumors in nude mice host. When the tumors were approximately 77 mg in size, the animals were pair matched into treatment and control groups. Each group contained 8 tumored mice, each of which was ear-tagged and followed individually throughout the experiment. Initial doses (10 mL/kg of a 66 mM Citrate buffer, pH 5.0/0.9% Saline/10% Tween 80 formulation of each test compound having a maximum concentration of 5 mg/mL) were given on Day 1 following pair matching, dosing at the levels and schedules indicated.
Mice were weighed twice weekly, and tumor measurements were taken by calipers twice weekly, starting on Day 1. These tumor measurements were converted to mg tumor weight by a well-known formula, W^2×L/2. The experiment was terminated when the control group tumor size reached an average of 1 gram. Upon termination, the mice were weighted, sacrificed and their tumors excised. Tumors were weighted and the mean treated tumor weight per group was calculated. In this model, the change in mean treated tumor weight/the change in mean control tumor weight×100% (ΔT/ΔC) was subtracted from 100% to give the tumor growth inhibition (TGI) for each group.

[2] = tested on: SKOV3 tumor xenograft; assay: SKOV3 tumor xenograft in nude mice; format: in vivo
[3] = tested on: A549 cells; details: cited from earlier work
[4] = biological target: T1, KSP motor domain (Homo sapiens, UniProt P52732); assay: KSP ATPase assay (IC50 / Ki); format: biochemical; details: for Ki: synthesized as single enantiomer
T1 construct: 100 nM KSP motor domain, 50 μg/ml microtubules
T1 sequence (P52732 18-359 limits assumed): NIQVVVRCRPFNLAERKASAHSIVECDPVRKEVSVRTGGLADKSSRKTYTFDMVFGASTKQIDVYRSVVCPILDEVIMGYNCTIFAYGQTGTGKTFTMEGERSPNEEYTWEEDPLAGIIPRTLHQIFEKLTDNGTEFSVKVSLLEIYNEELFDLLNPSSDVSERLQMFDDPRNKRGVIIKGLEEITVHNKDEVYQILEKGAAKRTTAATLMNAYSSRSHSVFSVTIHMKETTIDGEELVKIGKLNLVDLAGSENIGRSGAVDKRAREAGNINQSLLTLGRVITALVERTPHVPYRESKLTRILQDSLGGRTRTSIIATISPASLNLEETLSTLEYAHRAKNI
Description: One measure of inhibition is IC50, defined as the concentration of the composition at which the activity of KSP is decreased by fifty percent. Preferred compositions have IC50's of less than about 1 mM, with preferred embodiments having IC50's of less than about 100 μM, with more preferred embodiments having IC50's of less than about 10 μM, with particularly preferred embodiments having IC50's of less than about 1 μM, and especially preferred embodiments having IC50's of less than about 100 nM, and with the most preferred embodiments having IC50's of less than about 10 nM. Measurement of IC50 is done using an ATPase assay.
The Ki for a compound is determined from the IC50 based on three assumptions. First, only one compound molecule binds to the enzyme and there is no cooperativity. […] Third, the enzymatic rate of the enzyme-inhibitor complex is zero. The rate (i.e., compound concentration) data are fitted to the equation: […]
Where V is the observed rate, Vmax is the rate of the free enzyme, I0 is the inhibitor concentration, E0 is the enzyme concentration, and Kd is the dissociation constant of the enzyme-inhibitor complex.
Measurement of a composition's IC50 for KSP activity uses an ATPase assay. The following solutions are used: Solution 1 consists of 3 mM phosphoenolpyruvate potassium salt (Sigma P-7127), 2 mM ATP (Sigma A-3377), 1 mM IDTT (Sigma D-9779), 5 μM paclitaxel (Sigma T-7402), 10 ppm antifoam 289 (Sigma A-8436), 25 mM Pipes/KOH pH 6.8 (Sigma P6757), 2 mM MgC12 (VWR JT400301), and 1 mM EGTA (Sigma E3889). Solution 2 consists of 1 mM NADH (Sigma N8129), 0.2 mg/ml BSA (Sigma A7906), pyruvate kinase 7 U/ml, L-lactate dehydrogenase 10 U/ml (Sigma P0294), 100 nM KSP motor domain, 50 μg/ml microtubules, 1 mM DTT (Sigma D9779), 5 μM paclitaxel (Sigma T-7402), 10 ppm antifoam 289 (Sigma A-8436), 25 mM Pipes/KOH pH 6.8 (Sigma P6757), 2 mM MgC12 (VWR JT4003-01), and 1 mM EGTA (Sigma E3889). Serial dilutions (8-12 two-fold dilutions) of the composition are made in a 96-well microtiter plate (Corning Costar 3695) using Solution 1. Following serial dilution each well has 50 μl of Solution 1. The reaction is started by adding 50 μl of solution 2 to each well. This may be done with a multichannel pipettor either manually or with automated liquid handling devices. The microtiter plate is then transferred to a microplate absorbance reader and multiple absorbance readings at 340 nm are taken for each well in a kinetic mode. The observed rate of change, which is proportional to the ATPase rate, is then plotted as a function of the compound concentration. For a standard IC50 determination the data acquired is fit by the following four parameter equation using a nonlinear fitting program (e.g., Grafit 4): […]
Where y is the observed rate and x the compound concentration.

[5] = tested on: Skov-3 cells (human ovarian cancer); assay: FACS analysis of cell cycle stage by DNA content; format: cell-based; details: 24 hours; 10 nM paclitaxel, 400 nM quinazolinone 1, 200 nM quinazolinone 2
Description: FACS analysis to determine cell cycle stage by measuring DNA content was performed as follows. Skov-3 cells (human ovarian cancer) were split 1:10 for plating in 10 cm dishes and grown to subconfluence with RPMI 1640 medium containing 5% fetal bovine serum (FBS). The cells were then treated with either 10 nM paclitaxel, 400 nM quinazolinone 1, 200 nM quinazolinone 2, or 0.25% DMSO (vehicle for compounds) for 24 hours. Cells were then rinsed off the plates with PBS containing 5 mM EDTA, pelleted, washed once in PBS containing 1% FCS, and then fixed overnight in 85% ethanol at 4° C. Before analysis, the cells were pelleted, washed once, and stained in a solution of 10 μg propidium iodide and 250 μg of ribonuclease (RNAse) A per milliliter at 37° C. for half an hour. Flow cytometry analysis was performed on a Becton-Dickinson FACScan, and data from 10,000 cells per sample was analyzed with Modfit software.

[6] = enantiomer 1 from chiral chromatography, read-out: IC50 (μM) Enantiomer 1
[7] = enantiomer 2 from chiral chromatography, read-out: IC50 (μM) Enantiomer 2
[8] = racemate, read-out: IC50 (μM) Racemate
[9] = 20 mg/kg daily × 5, i.p., Tables A-D
[10] = 80 mg/kg every 3 days × 4, i.v.
[11] = R enantiomer, read-out: Ki (μM) R enantiomer
[12] = S enantiomer, read-out: Ki (μM) S enantiomer
[13] = 50 mg/kg every 3 days × 4, i.v.

CCC(c1nc2cc(Cl)ccc2c(=O)n1Cc1ccccc1)N(CC1CNC1)C(=O)c1ccc(C)cc1 (centres unmarked) [Compound 3]
Maximum Weight Loss ([1]; 60 mg/kg daily × 5, i.v.): 2.76% | Tumor Growth Inhibition ([1]; 60 mg/kg daily × 5, i.v.): 48.3% | Mice with Partial Tumor Shrinkage ([1]; 60 mg/kg daily × 5, i.v.): 0 | Mortalities ([1]; 60 mg/kg daily × 5, i.v.): 1 | Final Tumor Weight (Mean ± SEM) ([2]; 60 mg/kg daily × 5, i.v.): 806.1 ± 163.8 mg

O=c1[nH]cc(F)c(=O)[nH]1 [5-fluorouracil]
GI50 [3]: 1000 nM

CC(c1nc2ccccc2c(=O)n1Cc1ccccc1)N(CCN(C)C)C(=O)c1ccc(Br)cc1 (single isomer, unassigned)
IC50 [4, 6]: > 40 µM | IC50 [4, 7]: 1.3 µM | IC50 [4, 8]: 2.6 µM

CCC(c1nc2cc(Cl)ccc2c(=O)n1Cc1ccccc1)N(CCCN)C(=O)c1ccc(C)cc1 (racemic)
IC50 ([4]; R isomer, read-out: R Isomer IC50): < 0.05 µM | IC50 ([4]; S isomer, read-out: S Isomer IC50): > 0.5 µM | IC50 ([4]; racemic, read-out: Racemic I C50): < 0.05 µM

CCC(c1nc2ccccc2c(=O)n1Cc1ccccc1)N(CCN(C)C)C(=O)c1ccc(Br)cc1 (single isomer, unassigned)
IC50 [4, 6]: 0.28 µM | IC50 [4, 7]: 0.03 µM | IC50 [4, 8]: 0.06 µM

CCC(c1nc2ccccc2c(=O)n1Cc1ccccc1)N(CCN(C)C)C(=O)c1cccc2ccccc12 (single isomer, unassigned)
IC50 [4, 6]: > 40 µM | IC50 [4, 7]: 6.6 µM | IC50 [4, 8]: 12.7 µM

CC(=O)O[C@H]1C(=O)[C@@]2(C)[C@H]([C@H](OC(=O)c3ccccc3)[C@]3(O)C[C@H](OC(=O)[C@H](O)[C@@H](NC(=O)c4ccccc4)c4ccccc4)C(C)=C1C3(C)C)[C@]1(OC(C)=O)CO[C@@H]1C[C@@H]2O [Taxol, paclitaxel, reference compound]
Maximum Weight Loss [1, 9]: 16.5% and 7.49% and 12.26% and 8.77% | Mean % Tumor Shrinkage [1, 9]: 27.9% and 43.5% and 44.4% | Tumor Growth Inhibition ([1]; 20 mg/kg daily × 5, i.p., separate experiments Tables A-D): 91.7% and 99.7% and 87.1% and 73.0% | shift of cell cycle stage (DNA content) [5]: caused a shift in the population of cells from a G0/G1 cell cycle stage (2n DNA content) to a G2/M cell cycle stage (4n DNA content) | GI50 [3]: 4 nM

CCC(c1nc2cc(Cl)ccc2c(=O)n1Cc1ccccc1)N(CCN)Cc1ccc(C)cc1 (centres unmarked) [Compound 4]
Final Tumor Weight (Mean ± SEM) ([1]; 4 mg/kg weekly × 3, i.v.): 726.9 ± 147.2 mg | Maximum Weight Loss ([1]; 4 mg/kg weekly × 3, i.v.): 0.02% | Tumor Growth Inhibition ([1]; 4 mg/kg weekly × 3, i.v.): 40.1% | Mice with Partial Tumor Shrinkage ([1]; 4 mg/kg weekly × 3, i.v.): 0 | Mortalities ([1]; 4 mg/kg weekly × 3, i.v.): 1

NC(=O)NO [hydroxyurea]
GI50 [3]: 500000 nM

CCC(c1nc2cc(Cl)ccc2c(=O)n1Cc1ccccc1)N(CCCN)Cc1ccc(Br)cc1 (centres unmarked) [Compound 1]
Maximum Weight Loss [1, 10]: None | Tumor Growth Inhibition [1, 10]: 41.5% | Mice with Partial Tumor Shrinkage [1, 10]: 0 | Mortalities [1, 10]: 1 | Final Tumor Weight (Mean ± SEM) [2, 10]: 554.3 ± 76.8 mg

CCC(c1nc2cc(Cl)ccc2c(=O)n1Cc1ccccc1)N(CCN)C(=O)c1ccc(Br)cc1 (centres unmarked)
Ki [4, 11]: < 0.05 µM | Ki [4, 12]: > 0.5 µM

CCC(c1nc2cc(F)ccc2c(=O)n1Cc1ccccc1)N(CCCN)C(=O)c1ccc(C)cc1 (centres unmarked) [Compound 2]
Final Tumor Weight (Mean ± SEM) [1, 13]: 340.8 ± 93.0 mg | Maximum Weight Loss [1, 13]: None | Tumor Growth Inhibition [1, 13]: 81.5% | Mice with Partial Tumor Shrinkage [1, 13]: 0 | Mortalities [1, 13]: 0

CC(c1nc2ccccc2c(=O)n1Cc1ccccc1)N(CCN)C(=O)c1ccc(Br)cc1 (centres unmarked)
Ki [4, 11]: < 0.1 µM | Ki [4, 12]: 2 µM

CCC(c1nc2cc(Cl)ccc2c(=O)n1Cc1ccccc1)N(CCCN(C)C)C(=O)c1ccc(Br)cc1 (centres unmarked) [Compound 5]
Final Tumor Weight (Mean ± SEM) ([1]; 25 mg/kg daily × 5, i.v.): 405.6 ± 124.8 mg | Maximum Weight Loss ([1]; 25 mg/kg daily × 5, i.v.): None | Mean % Tumor Shrinkage ([1]; 25 mg/kg daily × 5, i.v.): 56.3% | Tumor Growth Inhibition ([1]; 25 mg/kg daily × 5, i.v.): 71.0% | Mice with Partial Tumor Shrinkage ([1]; 25 mg/kg daily × 5, i.v.): 1 | Mortalities ([1]; 25 mg/kg daily × 5, i.v.): 0

COc1cccc2c1C(=O)c1c(O)c3c(c(O)c1C2=O)C[C@@](O)(C(=O)CO)C[C@@H]3O[C@H]1C[C@H](N)[C@H](O)[C@H](C)O1 [doxorubicin]
GI50 [3]: 63 nM
